Measurements as given in patent US9775353B2, “Pesticidally active heterocyclic derivatives with sulphur containing substituents” (Syngenta Participations AG, priority 2014, dated 2017).

Key:
Type in all cases: in vivo
[1] = tested on: Myzus persicae (green peach aphid); experiment: Example B8: Activity against Myzus persicae (feeding/residual contact, preventive, mixed population); settings: foliar, 144 h, sunflower leaf discs sprayed, mixed ages, mortality 6 DAT
Protocol: Example B8: Activity Against Myzus persicae (Green Peach Aphid) (Feeding/Residual Contact Activity, Preventive), Mixed Population Sunflower leaf discs were placed on agar in a 24-well microtiter plate and sprayed with test solutions. After drying, the leaf discs were infested with an aphid population of mixed ages. After an incubation period of 6 DAT, samples were checked for mortality and special effects (e.g. phytotoxicity).

[2] = tested on: Spodoptera littoralis (Egyptian cotton leaf worm); experiment: Example B1: Activity against Spodoptera littoralis (larvicide, feeding/residual contact, preventive); settings: foliar, 72 h, cotton leaf discs sprayed, L1 larvae, mortality, repellent effect, feeding behaviour, growth regulation 3 days after treatment
From the text: Example B1: Activity Against Spodoptera littoralis (Egyptian Cotton Leaf Worm) (Larvicide, Feeding/Residual Contact Activity, Preventive) Cotton leaf discs were placed on agar in a 24-well microtiter plate and sprayed with test solutions. After drying, the leaf discs were infested with 5 L1 larvae. The samples were checked for mortality, repellent effect, feeding behaviour, and growth regulation 3 days after treatment (DAT).

[3] = tested on: Plutella xylostella (diamond back moth); experiment: Example B2: Activity against Plutella xylostella (larvicide, feeding/residual contact, preventive); settings: 120 h, artificial diet, L2 larvae, larval mortality, antifeedant, growth regulation after 5 days
Protocol: Example B2: Activity Against Plutella xylostella (Diamond Back Moth) (Larvicide, Feeding/Residual Contact Activity, Preventive) 24-well microtiter plate (MTP) with artificial diet was treated with test solutions by pipetting. After drying, the MTPs were infested with L2 larvae (10-15 per well). After an incubation period of 5 days, samples were checked for larval mortality, antifeedant and growth regulation.

[4] = tested on: Diabrotica balteata (corn root worm); experiment: Example B3: Activity against Diabrotica balteata (larvae L2 on maize sprouts, feeding/contact, preventative); settings: 120 h, maize sprouts sprayed, larval mortality and growth regulation after 5 days
Protocol: Example B3: Activity Against Diabrotica balteata (Corn Root Worm) (Larvae L2 on Maize Sprouts, Feeding/Contact, Preventative) Maize sprouts, placed on an agar layer in 24 well micro titer plates were treated with test solutions by spraying. After drying, the MTPs were infested with L2 larvae (6-10 per well). After an incubation period of 5 days, samples were checked for larval mortality and growth regulation.

[5] = tested on: Euschistus heros (neotropical brown stink bug); experiment: Example B10: Activity against Euschistus heros; settings: 120 h, soybean leaf sprayed, N-2 nymphs, mortality 5 days after infestation
Protocol: Example B10: Activity Against Euschistus heros (Neotropical Brown Stink Bug) Soybean leaf on agar in 24-well microtiter plates were sprayed with aqueous test solutions prepared from 10,000 ppm DMSO stock solutions. After drying the leaf were infested with N-2 nymphs. The samples were assessed for mortality 5 days after infestation.

[6] = tested on: Bemisia tabaci (cotton white fly); experiment: Example B5: Activity against Bemisia tabaci (adulticide contact activity, preventative); settings: foliar, 168 h, cotton leaf discs sprayed, adult white flies, mortality 7 DAT
Protocol: Example B5: Activity Against Bemisia tabaci (Cotton White Fly) (Adulticide Contact Activity, Preventative), Adult Cotton leaf discs were placed on agar in a 24-well microtiter plate and sprayed with test solutions. After drying, the leaf discs were infested with adult white flies. After an incubation period of 7 DAT, samples were checked for mortality and special effects (e.g. phytotoxicity).

[7] = tested on: Spodoptera littoralis (Egyptian cotton leaf worm); experiment: Example B7: Activity against Spodoptera littoralis (systemic activity); settings: 120 h, systemic via lettuce roots in agar, mortality, repellent effect, feeding behavior, growth regulation 5 days after infestation
From the text: Example B7: Activity Against Spodoptera littoralis (Egyptian Cotton Leaf Worm) (Systemic Activity) Test compounds were applied by pipette into 24 well plates and mixed with agar. Lettuce seeds were placed on the agar and the multi well plate is closed by another plate which contains also agar. After 7 days the roots have absorbed the compound and the lettuce has grown into the lid plate. The lettuce leaves were now cut off into the lid plate. Spodoptera eggs were pipetted through a plastic stencil on a humid gel blotting paper and the plate closed with it. The samples are checked for mortality, repellent effect, feeding behavior, and growth regulation 5 days after infestation.

SMILES	pest or weed control at 400 ppm [1]	pest or weed control at 400 ppm [2]	pest or weed control at 400 ppm [3]	pest or weed control at 400 ppm [4]	pest or weed control at 400 ppm [5]	pest or weed control at 400 ppm [6]	pest or weed control at 12.5 ppm [7]
CCS(=O)(=O)c1cc(-c2cccc(CC#N)c2)cnc1-c1nc2cc(C(F)(F)F)ncc2n1C [Compound P29]	> 80%						
CCSc1ccc(-c2cnc(-c3nc4cc(C(F)(F)F)ncc4n3C)c(S(=O)(=O)CC)c2)cc1 [Compound P32]	> 80%	> 80%	> 80%	> 80%	> 80%		
CCS(=O)(=O)c1cc(-c2ccc(Cl)cc2C)cnc1-c1nc2cc(C(F)(F)F)ncc2n1C [Compound P14, 2-[5-(4-chloro-2-methyl-phenyl)-3-ethylsulfonyl-2-pyridyl]-3-methyl-6-(trifluoromethyl)imidazo[4,5-c]pyridine]	> 80%	> 80%	> 80%	> 80%	> 80%		
CCS(=O)(=O)c1cc(-c2ccc([Si](C)(C)C)cc2)cnc1-c1nc2cc(C(F)(F)F)ncc2n1C [Compound P26]			> 80%	> 80%			
CCSc1cc(-c2ccc(C(F)(F)F)cc2)ccc1-c1nc2cc(C(F)(F)F)ncc2n1C [Compound P33]				> 80%	> 80%		
CCS(=O)(=O)c1cc(-c2ccccc2Cl)cnc1-c1nc2cc(C(F)(F)F)ncc2n1C [Compound P12]	> 80%	> 80%	> 80%	> 80%	> 80%		
CCSc1cc(-c2ccc(Cl)cc2)cnc1-c1nc2cc(C(F)(F)F)ncc2n1C [Compound P15, 2-[5-(4-chlorophenyl)-3-ethylsulfanyl-2-pyridyl]-3-methyl-6-(trifluoromethyl)imidazo[4,5-c]pyridine]		> 80%	> 80%	> 80%	> 80%		
CCS(=O)(=O)c1cc(-c2ccccc2SC)cnc1-c1nc2cc(C(F)(F)F)ncc2n1C [Compound P28]	> 80%		> 80%	> 80%			
CCS(=O)(=O)c1cc(-c2cc(F)ccc2F)cnc1-c1nc2cc(C(F)(F)F)ncc2n1C [Compound P11]	> 80%	> 80%	> 80%	> 80%	> 80%		
CCS(=O)(=O)c1cc(-c2ccc(C(F)(F)F)cc2)cnc1-c1nc2cc(C(F)(F)F)ncc2n1C [Compound P2]	> 80%	> 80%	> 80%	> 80%	> 80%	> 80%	≥ 80%
CCS(=O)(=O)c1cc(-c2ccccc2OCCSC)cnc1-c1nc2cc(C(F)(F)F)ncc2n1C [Compound P30]		> 80%					
CCS(=O)(=O)c1cc(-c2cccc(-c3nnc(C)o3)c2)cnc1-c1nc2cc(C(F)(F)F)ncc2n1C [Compound P20]	> 80%	> 80%	> 80%			> 80%	
CCS(=O)(=O)c1cc(-c2ccc(CC#N)cc2)cnc1-c1nc2cc(C(F)(F)F)ncc2n1C [Compound P31]	> 80%		> 80%				
CCS(=O)(=O)c1cc(-c2cccc(OC(F)(F)F)c2)cnc1-c1nc2cc(C(F)(F)F)ncc2n1C [Compound P25]	> 80%	> 80%	> 80%	> 80%	> 80%	> 80%	≥ 80%
CCS(=O)(=O)c1cc(-c2cccc(C(F)(F)F)c2)cnc1-c1nc2cc(C(F)(F)F)ncc2n1C [Compound P3]	> 80%	> 80%	> 80%	> 80%	> 80%	> 80%	≥ 80%
CCS(=O)(=O)c1cc(-c2cccc(Cl)c2)cnc1-c1nc2cc(C(F)(F)F)ncc2n1C [Compound P5]	> 80%	> 80%	> 80%	> 80%	> 80%	> 80%	≥ 80%
CCS(=O)(=O)c1cc(-c2ccc(-n3cccn3)cc2)cnc1-c1nc2cc(C(F)(F)F)ncc2n1C [Compound P37]	> 80%	> 80%	> 80%	> 80%	> 80%		
CCc1ccccc1-c1cnc(-c2nc3cc(C(F)(F)F)ncc3n2C)c(S(=O)(=O)CC)c1 [Compound P38]			> 80%	> 80%			
CCS(=O)(=O)c1cc(-c2ccc(Cl)c(Cl)c2)cnc1-c1nc2cc(C(F)(F)F)ncc2n1C [Compound P6]	> 80%	> 80%	> 80%	> 80%	> 80%		≥ 80%
CCS(=O)(=O)c1cc(-c2cc(C)c(OC)c(C)c2)cnc1-c1nc2cc(C(F)(F)F)ncc2n1C [Compound P10]			> 80%	> 80%			
CCS(=O)(=O)c1cc(-c2ccc(Cl)cc2Cl)cnc1-c1nc2cc(C(F)(F)F)ncc2n1C [Compound P8]	> 80%	> 80%	> 80%	> 80%		> 80%	
CCS(=O)(=O)c1cc(-c2ccc(C(F)(F)F)cc2)ccc1-c1nc2cc(C(F)(F)F)ncc2n1C [Compound P27]		> 80%	> 80%	> 80%	> 80%	> 80%	≥ 80%
CCS(=O)(=O)c1cc(-c2cccc(-c3nnco3)c2)cnc1-c1nc2cc(C(F)(F)F)ncc2n1C [Compound P23]	> 80%	> 80%	> 80%	> 80%	> 80%		≥ 80%
CCS(=O)(=O)c1cc(-c2ccc(OC)c(F)c2)cnc1-c1nc2cc(C(F)(F)F)ncc2n1C [Compound P9]	> 80%	> 80%	> 80%	> 80%			
CCS(=O)(=O)c1cc(-c2ccc(Cl)cc2)ccc1-c1nc2cc(C(F)(F)F)ncc2n1C [Compound P22]		> 80%	> 80%	> 80%	> 80%	> 80%	≥ 80%
CCS(=O)(=O)c1cc(-c2cc(F)c(F)cc2F)cnc1-c1nc2cc(C(F)(F)F)ncc2n1C [Compound P35]		> 80%	> 80%	> 80%	> 80%		≥ 80%
